Laboratory results from US20060083754A1, “Pharmaceutical combinations comprising corticoids and immunosuppressants for treating corticoid- and/or calcineurin inhibitors-resistant diseases” (priority 2003, published 2006).

Tests used:
[1] = tested on: human peripheral blood mononuclear cells (PBMC); assay: T-cell proliferation assay (BrdU ELISA), PBMC stimulated with anti-CD3 mAb + anti-CD28 mAb; format: cell-based; settings: anti-CD3 mAb (0.1 μg/ml)+anti-CD28 mAb (1 μg/ml); for inhibition at 0.03 µM: Homo sapiens, PBMC
[2] = tested on: human peripheral blood mononuclear cells (PBMC); assay: T-cell proliferation assay (BrdU ELISA), PBMC stimulated with SEB; format: cell-based; settings: SEB (0.1 μg/ml); for inhibition at 0.03 µM: Homo sapiens, PBMC
[3] = Example 1, 200000 cells/well, HC 10 μM, ASM 30 nM, BETA 300 nM
[4] = Example 2, 100000 cells/well, HC 10 μM, ASM 30 nM, BETA 300 nM
[5] = Example 3, 50000 cells/well, HC 10 μM, ASM 30 nM, BETA 300 nM
[6] = Example 6, 200000 cells/well, DEX 300 nM, ASM 30 nM, BETA 300 nM
[7] = Example 7, 100000 cells/well, DEX 300 nM, ASM 30 nM, BETA 300 nM
[8] = Example 8, 50000 cells/well, DEX 300 nM, ASM 30 nM, BETA 300 nM
[9] = Example 11, 100000 cells/well, DEX 300 nM, ASM 30 nM
[10] = Example 4, 200000 cells/well, HC 10 μM, ASM 30 nM, BETA 300 nM
[11] = Example 5, 100000 cells/well, HC 10 μM, ASM 30 nM, BETA 300 nM
[12] = Example 9, 200000 cells/well, DEX 300 nM, ASM 30 nM, BETA 300 nM
[13] = Example 10, 100000 cells/well, DEX 300 nM, ASM 30 nM, BETA 300 nM
[14] = Example 12, 100000 cells/well, DEX 300 nM, ASM 30 nM
[15] = Example 13, 200000 cells/well, HC 10 μM, FK 30 nM, BETA 300 nM
[16] = Example 14, 100000 cells/well, HC 10 μM, FK 30 nM, BETA 300 nM
[17] = Example 15, 200000 cells/well, DEX 300 nM, FK 30 nM, BETA 300 nM
[18] = Example 16, 100000 cells/well, DEX 300 nM, FK 30 nM, BETA 300 nM
[19] = Example 17, 50000 cells/well, DEX 300 nM, FK 30 nM, BETA 300 nM
[20] = Example 19, 200000 cells/well, HC 10 μM, CsA 300 nM, BETA 300 nM, HC (10 μM)+CsA (30 nM), BETA (300 nM)+CsA (300 nM)
[21] = Example 20, 100000 cells/well, HC 10 μM, CsA 300 nM, BETA 300 nM, HC (10 μM)+CsA (30 nM), BETA (300 nM)+CsA (300 nM)
[22] = Example 21, 50000 cells/well, HC 10 μM, CsA 300 nM, BETA 300 nM, HC (10 μM)+CsA (30 nM), BETA (300 nM)+CsA (300 nM)
[23] = Example 23, 200000 cells/well, DEX 300 nM, CsA 300 nM, BETA 300 nM, DEX (300 nM)+CsA (30 nM), BETA (300 nM)+CsA (300 nM)
[24] = Example 24, 100000 cells/well, DEX 300 nM, CsA 300 nM, BETA 300 nM, DEX (300 nM)+CsA (30 nM), BETA (300 nM)+CsA (300 nM)
[25] = Example 25, 50000 cells/well, DEX 300 nM, CsA 300 nM, BETA 300 nM, DEX (300 nM)+CsA (30 nM), BETA (300 nM)+CsA (300 nM)
[26] = Example 22, 200000 cells/well, HC 10 μM, CsA 300 nM, BETA 300 nM, HC (10 μM)+CsA (30 nM), BETA (300 nM)+CsA (300 nM)
[27] = Example 26, 200000 cells/well, DEX 300 nM, CsA 300 nM, BETA 300 nM, DEX (300 nM)+CsA (30 nM), BETA (300 nM)+CsA (300 nM)

With CC[C@@H]1/C=C(\C)C[C@H](C)C[C@H](OC)[C@H]2O[C@@](O)(C(=O)C(=O)N3CCCC[C@H]3C(=O)O[C@H](/C(C)=C/[C@@H]3CC[C@H](Cl)[C@H](OC)C3)[C@H](C)[C@@H](O)CC1=O)[C@H](C)C[C@@H]2OC [ASM, 33-epi-33-chloro-FR 520] the “Normalized OD (% STIM-C)” value [1, 3] was 93.9 % STIM-C, the OD [1, 3] was 0.721 and the “Normalized OD (% STIM-C)” value [1, 4] was 85.1 % STIM-C. The OD [1, 4] was 0.776, the “Normalized OD (% STIM-C)” value [1, 5] was 113.2 % STIM-C and the OD [1, 5] was 0.994. The “Normalized OD (% STIM-C)” value [1, 6] was 98.0 % STIM-C, the OD [1, 6] was 0.772 and the “Normalized OD (% STIM-C)” value [1, 7] was 87.4 % STIM-C. For the same molecule, the OD [1, 7] was 0.734, the “Normalized OD (% STIM-C)” value [1, 8] was 86.2 % STIM-C and the OD [1, 8] was 0.908. The “Normalized OD (% STIM-C)” value [1, 9] was 79.1 % STIM-C, the OD [1, 9] was 0.918 and the inhibition at 0.03 µM [1, 3] was 6.7%. The inhibition at 0.03 µM [1, 4] was under 17%, the inhibition at 0.03 µM [1, 5] was -14.3% and the inhibition at 0.03 µM [1, 7] was under 25%. For the same molecule, the inhibition at 0.03 µM [1, 8] was under 26%, the inhibition at 0.03 µM [1, 9] was under 25% and the “Normalized OD (% STIM-C)” value [2, 10] was 95.8 % STIM-C. The OD [2, 10] was 1.015, the “Normalized OD (% STIM-C)” value [2, 11] was 78.1 % STIM-C and the OD [2, 11] was 0.665. For the same molecule, the “Normalized OD (% STIM-C)” value [2, 12] was 83.1 % STIM-C, the OD [2, 12] was 0.752 and the “Normalized OD (% STIM-C)” value [2, 13] was 67.3 % STIM-C. For the same molecule, the OD [2, 13] was 0.660, the “Normalized OD (% STIM-C)” value [2, 14] was 77.5 % STIM-C and the OD [2, 14] was 1.013. The inhibition at 0.03 µM [2, 11] was under 24%, the inhibition at 0.03 µM [2, 12] was under 19% and the inhibition at 0.03 µM [2, 13] was under 34%. It also gave an inhibition at 0.03 µM [2, 14] of under 24%.
CCCCC(=O)O[C@]1(C(=O)CO)[C@@H](C)C[C@H]2[C@@H]3CCC4=CC(=O)C=C[C@]4(C)[C@@]3(F)[C@@H](O)C[C@@]21C [BETA, betamethasone 17-valerate] was tested, and the “Normalized OD (% STIM-C)” value [1, 3] was 105.2 % STIM-C, the OD [1, 3] was 0.808 and the “Normalized OD (% STIM-C)” value [1, 4] was 87.3 % STIM-C. The OD [1, 4] was 0.796, the “Normalized OD (% STIM-C)” value [1, 5] was 99.4 % STIM-C and the OD [1, 5] was 0.873. The “Normalized OD (% STIM-C)” value [1, 6] was 89.2 % STIM-C, the OD [1, 6] was 0.703 and the “Normalized OD (% STIM-C)” value [1, 7] was 82.4 % STIM-C. The OD [1, 7] was 0.692, the “Normalized OD (% STIM-C)” value [1, 8] was 75.4 % STIM-C and the OD [1, 8] was 0.794. For the same molecule, the “Normalized OD (% STIM-C)” value [1, 15] was 105.2 % STIM-C, the OD [1, 15] was 0.808 and the “Normalized OD (% STIM-C)” value [1, 16] was 87.3 % STIM-C. For the same molecule, the OD [1, 16] was 0.796, the “Normalized OD (% STIM-C)” value [1, 17] was 89.2 % STIM-C and the OD [1, 17] was 0.703. For the same molecule, the “Normalized OD (% STIM-C)” value [1, 18] was 82.4 % STIM-C, the OD [1, 18] was 0.692 and the “Normalized OD (% STIM-C)” value [1, 19] was 75.4 % STIM-C. The OD [1, 19] was 0.794, the “Normalized OD (% STIM-C)” value [1, 20] was 105.2 % STIM-C and the OD [1, 20] was 0.808. The “Normalized OD (% STIM-C)” value [1, 21] was 87.3 % STIM-C, the OD [1, 21] was 0.796 and the “Normalized OD (% STIM-C)” value [1, 22] was 99.4 % STIM-C. For the same molecule, the OD [1, 22] was 0.873, the “Normalized OD (% STIM-C)” value [1, 23] was 89.2 % STIM-C and the OD [1, 23] was 0.703. For the same molecule, the “Normalized OD (% STIM-C)” value [1, 24] was 82.4 % STIM-C, the OD [1, 24] was 0.692 and the “Normalized OD (% STIM-C)” value [1, 25] was 75.4 % STIM-C. For the same molecule, the OD [1, 25] was 0.794, the “Normalized OD (% STIM-C)” value [2, 10] was 85.0 % STIM-C and the OD [2, 10] was 0.900. The “Normalized OD (% STIM-C)” value [2, 11] was 117.6 % STIM-C, the OD [2, 11] was 1.001 and the “Normalized OD (% STIM-C)” value [2, 12] was 99.7 % STIM-C. For the same molecule, the OD [2, 12] was 0.902, the “Normalized OD (% STIM-C)” value [2, 13] was 97.4 % STIM-C and the OD [2, 13] was 0.955. For the same molecule, the “Normalized OD (% STIM-C)” value [2, 26] was 85.0 % STIM-C, the OD [2, 26] was 0.900 and the “Normalized OD (% STIM-C)” value [2, 27] was 99.7 % STIM-C. For the same molecule, the OD [2, 27] was 0.902.
